Experimental data as given in patent US10538506B2, “Crystal form of a potassium-competitive acid blocker and preparation method thereof” (Jiangsu Hansoh Pharmaceutical Group Co., Ltd., priority 2014, dated 2020).

What was measured:
[1] = Long-term stability testing, inspection items; assay type: physicochemical; conditions: for Appearance / Content (%) / HPLC identification / Moisture (%) / Particle size d (0.5) / Particle size d (0.9) / Related substance (%) Maximum unknown single impurity / Related substance (%) Total impurities: 30° C./65% humidity
Experimental: The samples were prepared according to the method of Example 1, and then were placed under the long-term stability conditions (temperature: 30° C.±2° C.; humidity: 65%±5%) for six months.

[2] = Hygroscopicity: weight gain due to moisture absorption; assay type: physicochemical
Experimental: The samples were prepared according to the method of Example 1, and the following tests were carried out:
(1) placing the sample at 25° C. and 75% humidity;
(2) placing the sample at 25° C. and 92.5% humidity.
The aforementioned two samples were taken and tested at different time points to investigate weight gain of the samples due to moisture absorption.

## CNCc1cc(-c2ccccc2F)n(S(=O)(=O)c2cccnc2)c1.O=C(O)/C=C/C(=O)O [Example 1, 1-[5-(2-fluorophenyl)-1-(pyridin-3-ylsulfonyl)-1H-pyrrol-3-yl]-N-methylmethanamine fumarate]
[1]; 0 months
  Appearance: White powder
  Content (%): 99.6%
  HPLC identification: Consistent
  Moisture (%): 0.04%
  Particle size d (0.5): d (0.5) ≤15 μm
  Particle size d (0.9): d (0.9) ≤30 μm
  Related substance (%) Maximum unknown single impurity: 0.03%
  Related substance (%) Total impurities: 0.12%
[1]; 3 months
  Appearance: White powder
  Content (%): 100.0%
  HPLC identification: Consistent
  Moisture (%): 0.08%
  Particle size d (0.5): d (0.5) ≤15 μm
  Particle size d (0.9): d (0.9) ≤30 μm
  Related substance (%) Maximum unknown single impurity: 0.04%
  Related substance (%) Total impurities: 0.13%
[1]; 6 months
  Appearance: White powder
  Content (%): 99.7%
  HPLC identification: Consistent
  Moisture (%): 0.08%
  Particle size d (0.5): d (0.5) ≤15 μm
  Particle size d (0.9): d (0.9) ≤30 μm
  Related substance (%) Maximum unknown single impurity: 0.03%
  Related substance (%) Total impurities: 0.13%
[1]; long-term storage conditions, 30° C.±2° C., humidity 65%±5%, six months, fumarate
  Stability: good stability
[2]; 25° C./RH 75%, 5 days
  weight gain due to moisture absorption (%): 0.01%
[2]; 25° C./RH 75%, 10 days
  weight gain due to moisture absorption (%): 0.13%
[2]; 25° C./RH 75%, 30 days
  weight gain due to moisture absorption (%): 0.12%
[2]; 25° C./RH 92.5%, 5 days
  weight gain due to moisture absorption (%): 0.17%
[2]; 25° C./RH 92.5%, 10 days
  weight gain due to moisture absorption (%): 0.12%
[2]; 25° C./RH 92.5%, 30 days
  weight gain due to moisture absorption (%): 0.19%
